According to US6924305B2, “Diazocine derivatives and their use as tryptase inhibitors” (Altana Pharma AG, priority 2001, dated 2005):

molecular target: human tryptase; test: Inhibition of human tryptase (apparent dissociation constant, chromogenic substrate tos-Gly-Pro-arg-pNA); type: biochemical; settings: pKiapp = -log Kiapp (mol/l), in presence of substrate, heparin 0.1-50 μg/ml, equilibrium conditions
From the text: The documented pathophysiological effects of mast cell tryptase are caused directly by the enzymatic activity of the protease. Accordingly, they are reduced or blocked by inhibitors which inhibit the enzymatic activity of the tryptase. A suitable measure for the affinity of a reversible inhibitor to the target protease is the equilibrium dissociation constant K1 of the enzyme-inhibitor complex. This K1 value can be determined via the effect of the inhibitor on the tryptase-induced cleavage of a chromogenic peptide-p-nitroanilide substrate or a fluorogenic peptide-aminomethylcoumarin substrate.
The dissociation constants for the tryptase-inhibitor complexes are determined under equilibrium conditions in accordance with the general proposals of Bieth (Bieth J G, Pathophysiological Interpretation of kinetic constants of protease inhibitors, Bull. Europ. Physiopath. Resp. 16:183-195, 1980) and the methods of Sommerhoff et al. (Sommerhoff C P et al., A Kazal-type inhibitor of human mast cell tryptase: Isolation from the medical leech Hirudo medicinalis, characterization, and sequence analysis, Biol. Chem. Hoppe-Seyler 375: 685-694, 1994).
Human tryptase is isolated from lung tissue or prepared recombinantly; the specific activity of the protease, determined by titration, is usually greater than 85% of the theoretical value. In the presence of heparin (0.1-50 μg/ml) for stabilizing the protease, constant amounts of the tryptase are incubated with increasing amounts of the inhibitors. After an equilibrium between the reaction partners has formed, the remaining enzyme activity after addition of the peptide-p-nitroanilide substrate tos-Gly-Pro-arg-pNA is determined and the cleavage of the latter is monitored at 405 nm for 3 min. Alternatively, the remaining enzymatic activity can also be determined using fluorogenic substrates. The apparent dissociation constants Klapp (i.e. in the presence of substrate) are subsequently determined by adapting the enzyme rates to the general equation for reversible inhibitors (Morrison J F, Kinetics of the reversible inhibition of enzyme-catalyzed reactions by tight-binding inhibitors, Biochim. Biophys. Acta 185, 269-286, 1969) using non-linear regression: V1/V0=1−{Et+It+Klapp−(Et+ItKlapp)^2−4EtIt]^1/2}/2Et V1 and V0 are the rates in the presence and absence, respectively, of the inhibitor, and Et and It are the tryptase and inhibitor concentrations, respectively.
The apparent dissociation constants determined for the compounds according to the invention are shown in Table A below, where the numbers of the compounds correspond to the numbers of the compounds in the examples [pKlapp=−logKlapp (mol/l)].

| pKiapp | Structure (SMILES) |
| --- | --- |
| 8.80 | Cl.Cl.NCc1ccc(CCC(=O)N2CC(NC(=O)CN3CCC(=O)N(CC(=O)NC4CC(C(N)=O)N(C(=O)CCc5ccc(CN)cc5)C4)CCC3=O)CC2C(N)=O)cc1 (centres unmarked) [Compound 5, 1,5-Bis{N,N′-[1-(3-(4-aminomethylphenyl)proplonyl)-2-aminocarbonylpyrrolidin-4-yl]-aminocarbonylmethyl}perhydro-1,5-diazocine-2,6-dione dihydrochloride] |
| 7.43 | Cl.Cl.NCc1ccc(CCC(=O)N2CC(NC(=O)CN3CCC(=O)N(CC(=O)NC4CC(C(=O)O)N(C(=O)CCc5ccc(CN)cc5)C4)CCC3=O)CC2C(=O)O)cc1 (centres unmarked) [Compound 3, 1,5-Bis{N,N′-[1-(3-(4-aminomethylphenyl)proplonyl)-2-carboxypyrrlidin-4-yl]-aminocarbonylmethyl}perhydro-1,5-diazocine-2,6-dine dihydrochloride] |
| 9.05 | COC(=O)C1CC(NC(=O)CN2CCC(=O)N(CC(=O)NC3CC(C(=O)OC)N(C(=O)CCc4ccc(CN)cc4)C3)CCC2=O)CN1C(=O)CCc1ccc(CN)cc1.Cl.Cl (centres unmarked) [Compound 1, 1,5-Bis{N,N′-[1-(3-(4-aminomethylphenyl)propionyl)-2-methoxycarbonylpyrrolidin-4-yl]aminocarbonylmethyl}perhydro-1,5-diazocine-2,6-dione dihydrochloride] |
| 9.22 | Cl.Cl.NCc1ccc(CCC(=O)N2CC(NC(=O)CN3CCC(=O)N(CC(=O)NC4CC(C(=O)OCc5ccccc5)N(C(=O)CCc5ccc(CN)cc5)C4)CCC3=O)CC2C(=O)OCc2ccccc2)cc1 (centres unmarked) [Compound 2, 1,5-Bis{N,N′-[1-(3-(4-aminomethylphenyl)propionyl)-2-benzyloxycarbonylpyrrolidin-4-yl]aminocarbonylmethyl}perhydro-1,5-diazocine-2,6-dione dihydrochloride] |
| 9.66 | Cl.Cl.NCc1ccc(CCC(=O)N2CC(NC(=O)CN3CCC(=O)N(CC(=O)NC4CC(C(=O)NC5CC5)N(C(=O)CCc5ccc(CN)cc5)C4)CCC3=O)CC2C(=O)NC2CC2)cc1 (centres unmarked) [Compound 4, 1,5-Bis{N,N′-[1-(3-(4-aminomethylphenyl)propionyl)-2-cyclopropylaminocarbonyl-pyrrolidin-4-yl]aminocarbonylmethyl}perhydro-1,5-diazocine-2,6-dione dihydrochloride] |
